Source: patent US20240252670A1, “ANTIBODY DRUG CONJUGATE, PREPARATION METHOD THEREFOR AND APPLICATION THEREOF” (TSINGHUA UNIVERSITY, priority 2021, published 2024)

Legend:
[1] = molecular target: T1, PD-L1 on MC38 cell surfaces (Mus musculus, UniProt Q9EP73); assay: FACS detection of antigen-binding capacity on PD-L1 positive MC38 cells (FITC secondary antibody)
T1 construct: endogenous in cells; host or cells: MC38 cells
Method: MC38 cells were treated with anti-PD-L1 antibody, anti-PD-L1 THIOMAB and ADC HE-S2, and then stained with FITC-labeled goat anti-human secondary antibody; the FITC signal intensity on MC38 surfaces was analyzed by FACS technique detection. A. The histograms of different colors represent, from top to bottom, the fluorescence signals measured for the negative control (NC) group, the secondary antibody group, the anti-PD-L1 antibody group, the anti-PD-L1 THIOMAB group, and the ADC HE-S2 group, respectively. B. Mean fluorescence intensity (MFI) measured after treatment with different antibody-based drugs on MC38. NC group: the negative control only added with the isotype antibody, with no secondary antibody added for staining; secondary antibody group: the control group added with the isotype antibody and stained with fluorescent secondary antibody. […]
With PD-L1 positive MC38 as a platform, the inventors verified whether ADC HE-S2 and the gene-modified anti-PD-L1 THIOMAB retained the original antibody-antigen binding capacity by using a fluorescence activated cell sorting (FACS) technique. […] The stained MC38 cells were analyzed on a BD FACSAria™ III flow cytometer, and the strength of FITC fluorescence signals on MC38 cells treated with different antibody-based drugs was detected and compared, so as to characterize the affinity of ADC, THIOMAB and antibodies to PD-L1.

[2] = system: PD-L1 negative Cd274 knockout DC 2.4 cells; assay: Preliminary internalization experiment in DC cells (FACS, 10% FBS); type: cell-based, mouse; settings: Cd274 knockout DC 2.4, 10% FBS, incubation 8 h, pHrodo red labeled antibody
Method: (§1) PD-L1 positive wild-type DC 2.4 cells and PD-L1 negative Cd274 knockout DC 2.4 cells were cultured in a 10% FBS culture medium, anti-PD-L1 THIOMAB labeled with pHrodo™ red dye was added after the cell state was stable, and the cells were incubated overnight. The intracellular red fluorescence intensity was then analyzed by FACS to characterize the internalization level of THIOMAB.
(§2) To verify internalization of anti-PD-L1 THIOMAB on DC cells, the inventors acquired two kinds of DC cells, which were Cd274 knockout DC 2.4 cells and wild-type DC 2.4 cells, from the teacher named Tang Haidong of the School of Pharmaceutical Sciences, Tsinghua University. The Cd274 gene was a PD-L1 encoding gene, and the knocked-out DC 2.4 could not express PD-L1 protein, so the first kind of cells was PD-L1 negative DC cells; while wild-type DC 2.4 could express PD-L1, so the second kind of cells was PD-L1 positive DC cells (as shown in FIG. 12). […]
(§3) In preliminary experiments, the inventors added 10% heat-inactivated fetal bovine serum (FBS) as a blocking agent to a culture medium of DC 2.4 cells according to a conventional procedure, and detected the red fluorescence signals in the cells by FACS after incubation for 8 h, and the results are shown in FIG. 13. […]

[3] = system: PD-L1 positive wild-type DC 2.4 cells; assay: as above; type: cell-based, mouse; settings: wild-type DC 2.4, 10% FBS, incubation 8 h, pHrodo red labeled antibody
Method: as §1, §2, §3

[4] = system: wild-type DC 2.4 cells and Cd274 knockout DC 2.4 cells; assay: Internalization and selectivity in DC cells, IncuCyte intensity-time curves with FBS or mouse serum blocking; type: cell-based
Method: The total red object integrated intensity-time variation curves for anti-PD-L1 THIOMAB labeled with pHrodo™ red dye in the wild-type DC 2.4 cell line and the Cd274 knockout DC 2.4 cell line. […] After addition of labeled anti-PD-L1 antibody, incubation was performed for 30 minutes at 4° C. to allow complete binding of antigen and antibody. The internalization of the antibodies was then analyzed by using the IncuCyte® viable cell system. A. Cells were cultured in a culture medium containing 10% FBS. B. Cells were cultured in a culture medium containing 10% mouse serum. C. After 6 hours, high-definition phase images, red fluorescence images and combined images of DC 2.4 cells were collected by using the IncuCyte® viable cell system. Student's t test was used to compare significant differences between the groups, and p<0.0001 is represented by ****.
To verify this hypothesis, the inventors used 10% mouse serum and 10% FBS as blocking agents which were added to cell culture media in groups, respectively. Relative to FBS, murine IgG enriched in mouse serum could block Fcγ receptors on the surface of DC 2.4 more effectively, thereby inhibiting the antibody internalization process mediated by Fcγ receptors on DC cells. […]

T1 sequence (Q9EP73 19-290): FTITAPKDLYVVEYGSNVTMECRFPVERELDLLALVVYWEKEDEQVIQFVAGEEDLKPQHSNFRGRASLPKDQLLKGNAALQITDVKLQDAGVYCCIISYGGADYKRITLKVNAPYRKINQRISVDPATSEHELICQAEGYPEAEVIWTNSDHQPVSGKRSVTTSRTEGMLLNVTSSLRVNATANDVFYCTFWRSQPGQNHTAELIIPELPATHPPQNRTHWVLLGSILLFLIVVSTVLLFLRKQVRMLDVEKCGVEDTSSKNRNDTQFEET

For “anti-PD-L1 THIOMAB: mutant avelumab, light chain V205C (SEQ ID NO: 9), heavy chain SEQ ID NO: 4; pHrodo red labeled in internalization tests”, which “MFI compared with the natural anti-PD-L1 antibody (Student's t test)” value [1] is on record?
The value was “no significant difference”.

What about the “proportion of red fluorescence positive cells” value [2] of the same substance?
Its value is 52.9%.

What about the “proportion of red fluorescence positive cells” value [3] of the same substance?
Its value is 53.6%.

What about the “fluorescence intensity variation curves, wild-type vs Cd274 knockout DC 2.4 cells” value ([4]; 10% FBS blocking) of the same substance?
Its value is “very similar fluorescence intensity variation curves”.

And the “speed of increase in total red object integrated intensity in wild-type DC cells vs Cd274 knockout DC cells” value ([4]; 10% mouse serum blocking, p<0.0001)?
Its value is “significantly higher”.
